Laboratory results reported in ChEMBL document CHEMBL1128305, “Metabotropic glutamate receptors: novel targets for drug development” (J Med Chem, 1995).
Where “and” joins values, the source holds several entries; their conditions need not be identical. Equal values may be shown once.

Assays:
[1] = target: Metabotropic glutamate receptor 4 (Homo sapiens, UniProt Q14833); experiment: Concentration for half maximal activation of metabotropic glutamate mGluR4a in human
[2] = target: Metabotropic glutamate receptor 7 (Homo sapiens, UniProt Q14831); experiment: Concentration for half maximal activation of metabotropic glutamate mGluR7 in human
[3] = target: Metabotropic glutamate receptor 4 (Rattus norvegicus, UniProt P31423); experiment: Concentration for half maximal activation of metabotropic glutamate mGluR4a in rat
[4] = target: Metabotropic glutamate receptor 7 (Rattus norvegicus, UniProt P35400); experiment: Concentration for half maximal activation of metabotropic glutamate mGluR7 in rat
[5] = target: Metabotropic glutamate receptor 6 (Rattus norvegicus, UniProt P35349); experiment: Concentration for half maximal activation of metabotropic glutamate mGluR6 in rat
[6] = target: T1, Metabotropic glutamate receptor 1 (Rattus norvegicus, UniProt P23385); experiment: Concentration for half maximal activation of metabotropic glutamate mGluR1b in rat
[7] = target: Metabotropic glutamate receptor 3 (Rattus norvegicus, UniProt P31422); experiment: Concentration for half maximal activation of metabotropic glutamate mGluR3 in rat
[8] = target: T2, Metabotropic glutamate receptor 5 (Rattus norvegicus, UniProt P31424); experiment: Concentration for half maximal activation of metabotropic glutamate mGluR5a in rat
[9] = target: T1, Metabotropic glutamate receptor 1; experiment: Concentration for half maximal activation of metabotropic glutamate mGluR1c in rat
[10] = target: Metabotropic glutamate receptor 8 (Mus musculus, UniProt P47743); experiment: Concentration for half maximal activation of metabotropic glutamate mGluR8 in mouse; assay type: single protein
[11] = target: T1, Metabotropic glutamate receptor 1; experiment: Concentration for half maximal activation of metabotropic glutamate mGluR1a in rat
[12] = target: T2, Metabotropic glutamate receptor 5; experiment: Concentration for half maximal activation of metabotropic glutamate mGluR5b in rat
[13] = target: Metabotropic glutamate receptor 2 (Homo sapiens, UniProt Q14416); experiment: Concentration for half maximal activation of metabotropic glutamate mGluR2 in human
[14] = target: Metabotropic glutamate receptor 2 (Rattus norvegicus, UniProt P31421); experiment: Concentration for half maximal activation of metabotropic glutamate mGluR2 in rat
[15] = target: Metabotropic glutamate receptor 5 (Homo sapiens, UniProt P41594); experiment: Concentration for half maximal activation of metabotropic glutamate mGluR5a in human

Sequence of Metabotropic glutamate receptor 7 (Homo sapiens, UniProt Q14831) (Q14831 whole entry): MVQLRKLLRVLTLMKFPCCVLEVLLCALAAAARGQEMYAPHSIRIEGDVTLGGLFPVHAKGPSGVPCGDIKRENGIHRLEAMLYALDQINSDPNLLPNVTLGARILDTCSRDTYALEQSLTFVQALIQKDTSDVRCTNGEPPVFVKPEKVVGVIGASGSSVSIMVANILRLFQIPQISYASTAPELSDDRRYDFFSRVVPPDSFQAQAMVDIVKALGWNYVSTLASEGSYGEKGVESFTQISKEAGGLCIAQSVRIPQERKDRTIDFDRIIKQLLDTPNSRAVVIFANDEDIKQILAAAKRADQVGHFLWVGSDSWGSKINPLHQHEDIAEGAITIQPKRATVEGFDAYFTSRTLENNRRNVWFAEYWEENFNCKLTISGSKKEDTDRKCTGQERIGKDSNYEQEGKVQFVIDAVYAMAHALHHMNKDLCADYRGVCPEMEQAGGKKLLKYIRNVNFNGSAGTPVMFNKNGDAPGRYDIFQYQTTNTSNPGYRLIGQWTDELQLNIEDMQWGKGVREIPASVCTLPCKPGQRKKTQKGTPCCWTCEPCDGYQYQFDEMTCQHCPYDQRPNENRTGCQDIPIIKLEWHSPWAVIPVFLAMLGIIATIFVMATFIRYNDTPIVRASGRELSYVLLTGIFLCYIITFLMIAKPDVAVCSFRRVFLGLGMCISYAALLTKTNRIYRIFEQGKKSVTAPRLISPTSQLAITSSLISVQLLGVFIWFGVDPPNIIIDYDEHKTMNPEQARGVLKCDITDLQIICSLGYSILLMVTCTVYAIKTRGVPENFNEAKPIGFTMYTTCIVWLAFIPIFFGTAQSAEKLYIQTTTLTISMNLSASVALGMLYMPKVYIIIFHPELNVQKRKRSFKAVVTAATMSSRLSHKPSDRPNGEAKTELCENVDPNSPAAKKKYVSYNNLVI
Sequence of Metabotropic glutamate receptor 7 (Rattus norvegicus, UniProt P35400) (P35400 whole entry): as the sequence (Q14831 whole entry) above, with R5G, A27V, N454H, S488T, A520S, D578N counted along it
Sequence of Metabotropic glutamate receptor 8 (P47743 whole entry): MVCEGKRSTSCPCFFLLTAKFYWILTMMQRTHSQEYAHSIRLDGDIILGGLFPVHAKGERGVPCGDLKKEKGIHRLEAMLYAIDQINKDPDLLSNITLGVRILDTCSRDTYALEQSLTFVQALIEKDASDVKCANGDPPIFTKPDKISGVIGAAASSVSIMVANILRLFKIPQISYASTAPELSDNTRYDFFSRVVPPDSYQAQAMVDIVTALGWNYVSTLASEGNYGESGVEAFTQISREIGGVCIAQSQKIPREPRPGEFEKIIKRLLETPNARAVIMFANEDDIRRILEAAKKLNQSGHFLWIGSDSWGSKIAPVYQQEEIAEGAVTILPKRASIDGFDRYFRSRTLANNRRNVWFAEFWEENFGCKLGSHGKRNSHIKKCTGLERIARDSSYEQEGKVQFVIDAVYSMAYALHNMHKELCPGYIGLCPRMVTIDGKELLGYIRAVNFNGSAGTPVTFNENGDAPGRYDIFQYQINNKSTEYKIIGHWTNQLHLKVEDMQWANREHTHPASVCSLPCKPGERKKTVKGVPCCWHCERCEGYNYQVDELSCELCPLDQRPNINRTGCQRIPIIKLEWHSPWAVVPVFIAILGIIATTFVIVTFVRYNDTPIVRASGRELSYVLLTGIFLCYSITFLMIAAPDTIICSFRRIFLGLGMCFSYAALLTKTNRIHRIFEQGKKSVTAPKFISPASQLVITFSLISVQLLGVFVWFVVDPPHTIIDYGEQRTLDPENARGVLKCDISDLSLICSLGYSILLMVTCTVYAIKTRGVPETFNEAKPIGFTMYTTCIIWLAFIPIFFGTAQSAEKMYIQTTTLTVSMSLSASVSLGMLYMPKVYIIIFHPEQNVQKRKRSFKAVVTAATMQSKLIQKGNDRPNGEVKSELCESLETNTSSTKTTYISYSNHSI
Sequence of Metabotropic glutamate receptor 2 (Rattus norvegicus, UniProt P31421) (P31421 whole entry): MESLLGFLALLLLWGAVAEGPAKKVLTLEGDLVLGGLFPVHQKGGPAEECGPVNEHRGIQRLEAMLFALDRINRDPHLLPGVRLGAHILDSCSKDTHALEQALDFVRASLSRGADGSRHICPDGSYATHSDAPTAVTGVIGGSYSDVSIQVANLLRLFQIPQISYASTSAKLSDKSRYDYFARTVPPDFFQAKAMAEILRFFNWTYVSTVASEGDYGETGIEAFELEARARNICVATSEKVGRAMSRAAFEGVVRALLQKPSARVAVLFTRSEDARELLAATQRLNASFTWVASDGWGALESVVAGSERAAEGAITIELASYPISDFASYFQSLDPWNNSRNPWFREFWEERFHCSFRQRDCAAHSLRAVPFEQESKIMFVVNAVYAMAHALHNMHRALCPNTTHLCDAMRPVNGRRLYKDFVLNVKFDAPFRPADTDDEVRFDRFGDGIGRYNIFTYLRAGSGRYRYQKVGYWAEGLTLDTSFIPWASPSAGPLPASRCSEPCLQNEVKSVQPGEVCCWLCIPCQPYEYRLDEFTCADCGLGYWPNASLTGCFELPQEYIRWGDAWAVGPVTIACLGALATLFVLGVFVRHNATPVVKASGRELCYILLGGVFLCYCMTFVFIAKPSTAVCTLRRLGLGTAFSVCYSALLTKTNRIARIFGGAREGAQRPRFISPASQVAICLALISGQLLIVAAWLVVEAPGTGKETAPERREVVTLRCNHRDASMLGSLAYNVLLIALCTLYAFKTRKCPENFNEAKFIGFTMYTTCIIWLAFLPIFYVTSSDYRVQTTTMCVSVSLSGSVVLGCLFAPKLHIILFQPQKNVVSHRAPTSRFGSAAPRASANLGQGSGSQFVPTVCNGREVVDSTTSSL
Sequence of Metabotropic glutamate receptor 6 (P35349 whole entry): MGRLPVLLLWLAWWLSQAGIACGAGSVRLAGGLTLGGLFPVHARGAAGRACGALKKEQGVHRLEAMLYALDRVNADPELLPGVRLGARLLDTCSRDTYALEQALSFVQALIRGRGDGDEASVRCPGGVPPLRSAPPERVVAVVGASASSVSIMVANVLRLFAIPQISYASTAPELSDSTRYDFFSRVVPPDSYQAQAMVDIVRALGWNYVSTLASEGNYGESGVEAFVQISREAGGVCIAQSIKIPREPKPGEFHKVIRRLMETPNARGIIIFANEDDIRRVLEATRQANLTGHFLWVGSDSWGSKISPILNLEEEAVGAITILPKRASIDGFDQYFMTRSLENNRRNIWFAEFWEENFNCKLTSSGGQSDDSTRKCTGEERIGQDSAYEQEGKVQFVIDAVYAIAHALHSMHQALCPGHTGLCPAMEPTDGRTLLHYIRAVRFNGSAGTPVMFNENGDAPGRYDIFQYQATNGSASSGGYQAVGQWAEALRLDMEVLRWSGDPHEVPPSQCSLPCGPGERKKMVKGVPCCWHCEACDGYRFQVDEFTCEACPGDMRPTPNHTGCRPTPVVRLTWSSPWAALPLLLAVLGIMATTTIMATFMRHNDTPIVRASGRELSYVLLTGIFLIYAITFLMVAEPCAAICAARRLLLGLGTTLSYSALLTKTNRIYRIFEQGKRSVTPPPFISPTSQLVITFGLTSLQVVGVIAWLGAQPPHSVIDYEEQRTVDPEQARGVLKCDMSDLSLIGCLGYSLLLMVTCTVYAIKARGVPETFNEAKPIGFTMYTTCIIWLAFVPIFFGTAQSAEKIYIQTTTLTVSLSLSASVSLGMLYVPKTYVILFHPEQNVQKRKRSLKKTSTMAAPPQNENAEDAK
Sequence of Metabotropic glutamate receptor 3 (P31422 whole entry): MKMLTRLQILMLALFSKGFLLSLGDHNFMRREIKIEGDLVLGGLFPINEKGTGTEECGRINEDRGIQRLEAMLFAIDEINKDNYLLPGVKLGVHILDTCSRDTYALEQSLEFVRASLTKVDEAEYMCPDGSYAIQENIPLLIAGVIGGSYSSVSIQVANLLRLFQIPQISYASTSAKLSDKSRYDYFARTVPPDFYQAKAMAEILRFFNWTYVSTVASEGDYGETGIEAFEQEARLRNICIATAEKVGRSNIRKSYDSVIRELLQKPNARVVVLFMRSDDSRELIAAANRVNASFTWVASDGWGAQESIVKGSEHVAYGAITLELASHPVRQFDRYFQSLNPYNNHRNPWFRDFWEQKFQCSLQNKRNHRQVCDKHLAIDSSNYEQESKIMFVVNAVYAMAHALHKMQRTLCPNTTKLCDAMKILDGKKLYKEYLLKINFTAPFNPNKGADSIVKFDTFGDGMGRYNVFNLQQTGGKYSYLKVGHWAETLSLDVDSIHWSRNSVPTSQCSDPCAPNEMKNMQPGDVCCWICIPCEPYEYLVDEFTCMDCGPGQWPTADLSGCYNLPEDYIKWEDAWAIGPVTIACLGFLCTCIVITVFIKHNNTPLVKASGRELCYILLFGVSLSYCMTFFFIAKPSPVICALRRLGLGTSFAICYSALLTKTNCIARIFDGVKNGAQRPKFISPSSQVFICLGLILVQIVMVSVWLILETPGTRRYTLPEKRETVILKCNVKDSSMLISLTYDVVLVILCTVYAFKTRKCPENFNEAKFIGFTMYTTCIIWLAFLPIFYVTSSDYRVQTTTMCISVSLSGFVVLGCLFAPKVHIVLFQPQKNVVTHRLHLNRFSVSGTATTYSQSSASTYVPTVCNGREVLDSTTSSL

Q: With `N[C@@H](COP(=O)(O)O)C(=O)O` [DEXFOSFOSERINE] as the molecule, how does the EC50 [1] read?
A: 1.3 µM

Q: What about the EC50 [2] of the same molecule?
A: < 200 µM

Q: And the EC50 [3]?
A: 4 µM

Q: And the EC50 [4]?
A: 160 µM

Q: What about the EC50 [5] of the same molecule?
A: 2.7 µM

Q: With `N[C@H](C(=O)O)c1cc(=O)[nH]o1` [IBOTENIC ACID] as the molecule, how does the EC50 [6] read?
A: 44 µM

Q: What about the EC50 [7] of the same molecule?
A: 10 µM

Q: And the EC50 [8]?
A: 10 µM and 8 µM

Q: What about the EC50 [3] of the same molecule?
A: 590 µM

Q: What about the EC50 [9] of the same molecule?
A: 60 µM

Q: And the EC50 [10]?
A: > 100 µM

Q: What about the EC50 [11] of the same molecule?
A: 6 µM

Q: What about the EC50 [12] of the same molecule?
A: 8 µM

Q: What about the EC50 [5] of the same molecule?
A: 1000 µM

Q: How did the EC50 [1] turn out when `N[C@@H](CCP(=O)(O)O)C(=O)O` was run?
A: 0.2 µM

Q: What about the EC50 [2] of the same molecule?
A: 200 µM

Q: And the EC50 [13]?
A: > 1000 µM

Q: What about the EC50 [3] of the same molecule?
A: 0.5 µM and 1.2 µM

Q: What about the EC50 [4] of the same molecule?
A: 160 µM and 500 µM

Q: What about the EC50 [9] of the same molecule?
A: > 1000 µM

Q: And the EC50 [10]?
A: 0.4 µM

Q: What about the EC50 [14] of the same molecule?
A: > 1000 µM

Q: What about the EC50 [5] of the same molecule?
A: 0.9 µM

Q: Which EC50 [1] does the source give for `N[C@@H](Cn1oc(=O)[nH]c1=O)C(=O)O` [QUISQUALATE] here?
A: > 500 µM

Q: And the EC50 [2]?
A: > 1000 µM

Q: And the EC50 [13]?
A: > 1000 µM

Q: What about the EC50 [7] of the same molecule?
A: 40 µM

Q: What about the EC50 [8] of the same molecule?
A: 0.3 µM and 0.2 µM

Q: What about the EC50 [15] of the same molecule?
A: 0.15 µM

Q: What about the EC50 [3] of the same molecule?
A: > 100 µM and 129 µM

Q: And the EC50 [4]?
A: > 1000 µM

Q: What about the EC50 [10] of the same molecule?
A: > 100 µM

Q: What about the EC50 [14] of the same molecule?
A: > 1000 µM

Q: And the EC50 [12]?
A: 0.2 µM

Q: And the EC50 [5]?
A: 1000 µM

Q: How did the EC50 [7] turn out when `N[C@H](C(=O)O)C1[C@@H](C(=O)O)[C@@H]1C(=O)O` (stereo partly specified) was run?
A: 0.3 µM

Q: And the EC50 [3]?
A: > 1000 µM

Q: What about the EC50 [11] of the same molecule?
A: > 1000 µM

Q: What about the EC50 [14] of the same molecule?
A: 0.3 µM

Q: With `N[C@@H](CCC(=O)O)C(=O)O` [GLUTAMIC ACID] as the molecule, how does the EC50 [2] read?
A: > 500 µM

Q: What about the EC50 [7] of the same molecule?
A: 3 µM

Q: What about the EC50 [3] of the same molecule?
A: 5 µM and 3.2 µM

Q: What about the EC50 [4] of the same molecule?
A: 1000 µM and 1300 µM

Q: What about the EC50 [10] of the same molecule?
A: 0.022 µM

Q: What about the EC50 [5] of the same molecule?
A: 16 µM

Q: Which results are given for `N[C@@]1(C(=O)O)CC[C@@H](C(=O)O)C1`?
A: EC50 [2]: > 1000 µM; EC50 [13]: 12.1 µM; EC50 [7]: 8 µM; EC50 [8]: 50 µM; EC50 [3]: > 100 µM and 39 µM; EC50 [4]: > 1000 µM; EC50 [10]: > 100 µM; EC50 [14]: 5 µM and 7.7 µM; EC50 [5]: > 200 µM

Q: With `N[C@H](C(=O)O)[C@H]1C[C@@H]1C(=O)O` as the molecule, how does the EC50 [13] read?
A: 0.38 µM

Q: And the EC50 [14]?
A: 0.75 µM
